Source: patent US20220136016A1, “MODIFIED CHLORAMPHENICOL […] AND BIOSYNTHESIS METHOD OF MAKING ESTERS USING SAME” (UNIVERSITY OF TENNESSEE RESEARCH FOUNDATION, priority 2020, published 2022)

B1: CATec3 F97W Y20F: CATec3 with Y20F mutation in combination with F97W (protein, UniProt P00484 1-213, looked up, variant Y20F F97W)
Chloramphenicol …: MNYTKFDVKNWVRREHFEFFRHRLPCGFSLTSKIDITTLKKSLDDSAYKFYPVMIYLIAQAVNQFDELRMAIKDDELIVWDSVDPQFTVFHQETETWSALSCPYSSDIDQFMVNYLSVMERYKSDTKLFPQGVTPENHLNISALPWVNFDSFNLNVANFTDYFAPIITMAKYQQEGDRLLLPLSVQVHHAVCDGFHVARFINRLQELCNSKLK
B2: CATec3 F97W: comparative CATec3 with F97W mutation (protein, UniProt P00484 1-213, looked up, variant F97W)
Chloramphenicol …: MNYTKFDVKNWVRREHFEFYRHRLPCGFSLTSKIDITTLKKSLDDSAYKFYPVMIYLIAQAVNQFDELRMAIKDDELIVWDSVDPQFTVFHQETETWSALSCPYSSDIDQFMVNYLSVMERYKSDTKLFPQGVTPENHLNISALPWVNFDSFNLNVANFTDYFAPIITMAKYQQEGDRLLLPLSVQVHHAVCDGFHVARFINRLQELCNSKLK
B3: CATec3: wild type CAT, type A, Escherichia coli; expressed in strain HSCT2107 (protein, listed as Escherichia coli)
chain: MNYTKFDVKNWVRREHFEFYRHRLPCGFSLTSKIDITTLKKSLDDSAYKFYPVMIYLIAQAVNQFDELRMAIKDDELIVWDSVDPQFTVFHQETETFSALSCPYSSDIDQFMVNYLSVMERYKSDTKLFPQGVTPENHLNISALPWVNFDSFNLNVANFTDYFAPIITMAKYQQEGDRLLLPLSVQVHHAVCDGFHVARFINRLQELCNSKLK
modifications: SITE (1)..(213) CAT3_ECOLX, Type A
notes: wild type CAT, type A, Escherichia coli; expressed in strain HSCT2107
B4: CAT_GEO: wild type CAT, type A, Geomicrobium sp. (protein, listed as Geomicrobium sp.)
chain: MTFNPITLENWERKEYFNHYLNQQTTFSMTTDIEISSFKAAIKRKGYKFYPTFIYMVTEVINANESFRISFNEEGKLGYWEKLIPLYTVFDDQKQSFSNLWTDSTGNVLTFQEDYDRDVAEYNHIGGLFPKTPIPANTFPISMIPWNSFSGFNLNVGNGGNFLLPIITAGKYYSKGTATYLPVSLQVHHAVCDGYHAASFMNQLQELANTTNEWL
modifications: SITE (1)..(215) CAT_GEO, Type A

Target: CATec3 Y20F (Escherichia coli, UniProt P00484, Y20F)
Experiment: not given
Format: biochemical
Conditions: not given

Butanol showed a kcat of 1.9 ± 0.4 s⁻¹.

Same assay, conditions: CATec3 Y20F, 50° C., 2 mM acetyl-CoA; average±standard deviation

`COc1cccc(CO)c1` [3-Methoxybenzyl alcohol] and `OCc1ccccc1` [Benzyl alcohol] are within error of each other in Km: 10 ± 1.2 mM for the first, 12.2 ± 1.6 mM for the second.

Going from `O=C(N[C@H](CO)[C@H](O)c1ccc([N+](=O)[O-])cc1)C(Cl)Cl` [Chloramphenicol] to `OCCc1ccccc1` [Phenylethyl alcohol], the Km rises from 0.2 ± 0.05 mM to 10.6 ± 0.4 mM (53-fold).

`CC(C)=CCCC(C)CCO` (centres unmarked) [Citronellol] and `CC(C)=CCC/C(C)=C/CO` [Geraniol] are within 1.5-fold of each other in Km: 3.2 ± 0.3 mM for the first, 4.1 ± 0.4 mM for the second.

`OCc1ccco1` [Furfuryl alcohol] and `CC(C)CCO` [Isoamyl alcohol] are within error of each other in Km: 37.1 ± 9.8 mM for the first, 59.9 ± 26.6 mM for the second.

`CCCCCCO` [Hexanol] and `CCCCCO` [Pentanol] are within error of each other in Km: 29.2 ± 4 mM for the first, 64.7 ± 33.6 mM for the second.

For `CC(C)=CCC/C(C)=C\CO` [Nerol], the Km was 4.1 ± 0.8 mM.

First: COc1cccc(CO)c1 [3-Methoxybenzyl alcohol]
Second: OCc1ccccc1 [Benzyl alcohol]
The kcat of the first is 12-fold higher: 18.8 ± 0.9 s⁻¹ for the first, 1.6 ± 0.1 s⁻¹ for the second.

First: CC/C=C\CCO [3-cis-Hexen-1-ol]
Second: CCCCCO [Pentanol]
The kcat of the first is 1.7-fold lower: 2.3 ± 0.2 s⁻¹ for the first, 3.9 ± 1.0 s⁻¹ for the second.

Compared with `O=C(N[C@H](CO)[C@H](O)c1ccc([N+](=O)[O-])cc1)C(Cl)Cl` [Chloramphenicol], `OCCc1ccccc1` [Phenylethyl alcohol] is 17-fold lower in kcat: 105.5 ± 6.9 s⁻¹ for the first, 6.1 ± 0.1 s⁻¹ for the second.

`CC(C)=CCCC(C)CCO` (centres unmarked) [Citronellol] and `CC(C)=CCC/C(C)=C/CO` [Geraniol] are within error of each other in kcat: 7.7 ± 0.2 s⁻¹ for the first, 8.0 ± 0.2 s⁻¹ for the second.

First: CCO [Ethanol]
Second: CC(C)CO [Isobutanol]
The kcat of the first is 2.9-fold lower: 0.8 ± 1.0 s⁻¹ for the first, 2.3 ± 0.1 s⁻¹ for the second.

Going from `OCc1ccco1` [Furfuryl alcohol] to `CC(C)CCO` [Isoamyl alcohol], the kcat rises from 1.1 ± 0.1 s⁻¹ to 2.8 ± 0.3 s⁻¹ (2.5-fold).

Going from `CCCCCCO` [Hexanol] to `CC(C)=CCC/C(C)=C\CO` [Nerol], the kcat falls from 6.4 ± 0.4 s⁻¹ to 2.2 ± 0.04 s⁻¹ (2.9-fold).

In the case of `CC(C)=CCO` [Prenol], the kcat is reported as 2.7 ± 0.3 s⁻¹.

Same assay, conditions: CATec3 Y20F, 50° C., 2 mM acetyl-CoA; average±standard deviation; read-out: KM

`CC/C=C\CCO` [3-cis-Hexen-1-ol] gave a Km of 6.4 ± 2.2 mM.

System: not listed separately
Experiment: Melting temperature (Tm) of purified His-tagged CATs
Format: physicochemical
Conditions: purified CAT
Protocol: To determine in vitro melting temperatures and catalytic efficiencies, His-tagged CATs were purified and characterized using know methods. In the 5,5′-dithiobis-2-nitrobenzoic acid (DTNB) assay, final enzyme concentrations of 0.05-0.1 μg/mL and 5-10 μg/mL were used for the reactions with chloramphenicol and alcohols, respectively. […] The enzyme reactions were held at 50° C. in a BioTek microplate reader for at least 30 minutes with measurements every one minute. The kinetic parameters were calculated using a non-linear regression method known to one of skill in the art.

Compared with B1, B2 is lower in “melting temperature (Tm)” value: 85.5 °C for the first, 81.2 °C for the second.

Going from B3 to B4, the “melting temperature (Tm)” value falls from 80.2 °C to 43.5 °C.
